Results as given in article PMC8190080, “Tanshinones induce tumor cell apoptosis via directly targeting FHIT” (Scientific Reports, 2021).

Experiments:
ENPP1 = molecular target: T1, ENPP1 (Homo sapiens, UniProt P22413); assay: MST assay, ENPP1; type: binding
T1 sequence (P22413 1-925): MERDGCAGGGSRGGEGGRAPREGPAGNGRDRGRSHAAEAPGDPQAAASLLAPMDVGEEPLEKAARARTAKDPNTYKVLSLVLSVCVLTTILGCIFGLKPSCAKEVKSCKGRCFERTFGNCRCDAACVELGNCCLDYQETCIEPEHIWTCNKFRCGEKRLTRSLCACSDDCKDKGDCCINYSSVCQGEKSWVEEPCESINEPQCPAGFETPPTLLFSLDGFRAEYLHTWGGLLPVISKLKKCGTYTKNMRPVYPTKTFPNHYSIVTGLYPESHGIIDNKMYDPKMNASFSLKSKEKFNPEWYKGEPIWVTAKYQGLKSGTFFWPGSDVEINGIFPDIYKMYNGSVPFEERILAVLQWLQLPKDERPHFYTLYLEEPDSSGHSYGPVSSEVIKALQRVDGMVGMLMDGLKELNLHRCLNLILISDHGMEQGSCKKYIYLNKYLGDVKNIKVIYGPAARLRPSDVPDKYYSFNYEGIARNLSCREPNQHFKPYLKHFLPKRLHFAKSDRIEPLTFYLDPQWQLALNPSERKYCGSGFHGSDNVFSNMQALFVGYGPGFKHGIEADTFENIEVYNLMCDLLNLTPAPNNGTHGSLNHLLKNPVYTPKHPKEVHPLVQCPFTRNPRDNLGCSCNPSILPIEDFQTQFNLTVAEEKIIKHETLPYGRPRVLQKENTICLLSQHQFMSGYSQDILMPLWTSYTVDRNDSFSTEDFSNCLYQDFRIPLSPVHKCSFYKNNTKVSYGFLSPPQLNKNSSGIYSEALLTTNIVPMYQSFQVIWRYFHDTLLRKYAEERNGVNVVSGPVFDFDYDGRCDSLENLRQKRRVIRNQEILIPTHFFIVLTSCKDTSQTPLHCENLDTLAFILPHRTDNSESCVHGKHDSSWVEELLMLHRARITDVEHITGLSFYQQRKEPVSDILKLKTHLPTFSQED

HINT1 = molecular target: T2, HINT1 (Homo sapiens, UniProt P49773); assay: MST assay, purified HINT1; type: binding
T2 construct: 6xHis (N); made in house; host or cells: E. coli BL21(DE3)
T2 sequence (P49773 whole entry): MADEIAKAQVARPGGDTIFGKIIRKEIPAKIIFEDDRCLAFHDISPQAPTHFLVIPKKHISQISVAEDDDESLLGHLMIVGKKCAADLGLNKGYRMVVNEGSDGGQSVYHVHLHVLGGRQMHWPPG

Kd (ENPP1): 27.2 ± 1.96 µM
direct binding (MST binding curve) (HINT1): no direct binding curve was observed
SMILES: Cc1c(S(=O)(=O)O)oc2c1C(=O)C(=O)c1c-2ccc2c1CCCC2(C)C [STS, Sodium tanshinone IIA sulfonate]
